Measurements as given in a melting point compilation (Tetko et al.).

Structure (SMILES)	melting point
CCCC(Cn1cncn1)c1ccc(Cl)cc1Cl (stereo unspecified)	60.3 °C
COC1C(O)C(C)OC(OC2C(Oc3cccc4c(O)c5c(=O)oc6ccc(C)c7c(=O)oc(c34)c5c67)OC(C)C(O)C2O)C1O (stereo unspecified)	185 °C
Fc1cc(CCl)c2c(c1)COCO2	78 to 80 °C
CCC(C)C1(CC)C(=O)NC(=S)NC1=O (stereo unspecified)	169 °C
Clc1cc(Cl)c(Cl)c(I)c1	52 °C
Sc1nc2cc3c(cc2[nH]1)OCCO3	300 °C
Cc1cc(C(F)(C(F)(F)F)C(F)(F)F)ccc1NC(=O)c1cccc(I)c1C(=O)NC(C)(C)CS(C)(=O)=O	218 °C
N[C@@H]1C=C[C@H](C(=O)O)C1	180 °C
COC(=O)C1=C(C(=O)OC)[C@@H]2C=C[C@H]1c1cc3ccccc3c(-c3ccccc3)c12	219 °C
CC(C)OC(C)(C)C	-88 °C
CN1CCOc2cc(Br)ccc21	47 to 49 °C
Nc1cc(C(=O)O)cc(C(=O)O)c1	360 °C
FC(F)(F)C(Cl)(Cl)C(Cl)(Cl)C(F)(F)F	83.5 °C
Cc1ccc(OCC(=O)O)c(C)c1	141 °C
CC(=O)C=CC1=C(C)CCCC1(C)C	-49 °C
CCc1nn(C)c(C(=O)NCc2ccc(C(C)(C)C)cc2)c1Cl	65 °C
CCCCCCCC1CCCC(=O)O1 (stereo unspecified)	-12 °C
CCCCCCCCCCC#CC#CCCCCCCC(=O)O	51 to 52 °C
COCCOC(=O)c1ccccc1C(=O)OCCOC	-45 °C
Cc1c(Cl)ccc([N+](=O)[O-])c1Cl	54 °C
CC(C)C(CO)CCC(C)(O)C(O)C(C)C (stereo unspecified)	60 °C
CN1CCc2cc3c(cc2C1C1OC(=O)c2c1ccc1c2OCO1)OCO3 (stereo unspecified)	194 °C
COc1cc(C=CC(=O)O)cc(OC)c1O	203 to 205 °C

Structure (SMILES)	melting point
COC(=O)c1ccc(N2N=N2)cc1	40 °C
O=C(O)C(Cl)Cl	13.5 °C
FC(F)(F)C(F)(F)C(F)(F)C(F)(F)C(F)(F)C(F)(F)C(F)(F)C(F)(F)C(F)(F)C(F)(F)C(F)(F)C(F)(F)I	99 to 101 °C
O=C(c1ccccc1)C(F)(F)F	-40 °C
Nc1cnn(-c2ccccc2)c(=O)c1Cl	206 °C
O=S(=O)(Oc1ccc(Cl)cc1)c1ccc(Cl)cc1	86.5 °C
Cc1cc(C)c(N=C=S)cc1C	22 to 24 °C
CC1(C)CON(Cc2ccccc2Cl)C1=O	33.9 °C
CCO[Si](C)(C)OCC	-70 °C
Cc1ccc(O[Si]23OCCN(CCO2)CCO3)cc1	188 °C
Cc1cc(C)c(S(=O)(=O)NN)c(C)c1	114 °C
CC(C)(Cl)CCC(C)(C)Cl	67.5 °C
Fc1c(F)c(F)c(Br)c(Br)c1F	12 °C
O=Cc1cc(Br)cc(OC(F)(F)F)c1O	46 °C
CN(C)c1ccc(C=O)c(F)c1C#N	125 to 127 °C
CC(C)(C)OC(=O)NCCCC(=O)O	55 °C
COc1ncccc1C(=O)O	149 °C
Nc1cc(Br)cnc1N	160 to 165 °C
N#Cc1cc(F)c(Cl)cc1Cl	46 °C
CC(CCl)OP(=O)(OC(C)CCl)OC(C)CCl (stereo unspecified)	-40 °C
CN(C)c1ccc([N+](=O)[O-])c(N)c1	134 to 139 °C
C=C(NC(C)=O)C(=O)O	184 to 187 °C

Next, values leading:

melting point	Structure (SMILES)
83 to 85 °C	O=C(Nc1cccnc1Cl)c1cccc(C(F)(F)F)c1
49 to 49.5 °C	CCCCc1ccc(/N=N/c2ccc(O)cc2)cc1
105 °C	O=C(OOC(=O)c1ccccc1)c1ccccc1
211 °C	COc1ccc(-c2ccccc2)cc1NC(=O)C(C(F)(F)F)C(F)(F)F
37 °C	Cc1ccn(-c2ccccc2)n1
174 to 177 °C	NC(c1cccc2ccccc12)C(N)c1cccc2ccccc12 (stereo unspecified)
51 °C	CCn1c(C)nc2ccccc21
225 °C	O=C(O)C(Br)C(Br)c1cccc(C(Br)C(Br)C(=O)O)c1 (stereo unspecified)
128 °C	COc1ccc(-c2onc(C(=O)c3ccc([N+](=O)[O-])cc3)c2S(=O)(=O)c2ccccc2)cc1
108 °C	CN(C)CCOc1ccc(C(=C(CCCl)c2ccccc2)c2ccccc2)cc1
99 to 101 °C	O=Cc1cccc2nsnc12
131 °C	CCCC(=O)OCN1C(=O)NC(c2ccccc2)(c2ccccc2)C1=O
222 °C	Cn1c(=O)c(C2=NNC(=O)C2=NNc2cccc(Cl)c2)c(O)c2ccccc21
50 °C	COC(=O)c1ccccc1C#N
29 to 32 °C	CCCCOc1ccc(CO)cc1
51 to 52 °C	O=Cc1ccccc1Oc1ccccn1
100 °C	CCOc1ccc(NC(=O)OC(C)C)cc1OCC
108 to 112 °C	O=C(O)c1cccc(Oc2ccccn2)c1
29 °C	CCc1ccccc1Nc1ccccc1CC
123 °C	COC(=O)c1cccc(C(=O)OC)n1
146 °C	COc1cc2noc(-c3ccc(C)o3)c2cc1OC
189 to 190 °C	O=C(O)c1ccc(-n2ccc(C(F)(F)F)n2)cc1
210 to 212 °C	NS(=O)(=O)c1ccc(N=C=S)cc1

melting point	Structure (SMILES)
110 °C	NS(=O)(=O)c1ccc(SCCCO)c(F)c1
243 to 245 °C	C/C(=N/NC(N)=O)C(=O)Nc1ccc(Br)cc1
53 °C	Cc1ccc2c(c1)CC2=O
86 to 90 °C	CC(C)(C)C(=O)Nc1ccccc1Cc1ccccc1
171 °C	COc1ccc(N/C=C2\C(=O)C3(C)CCC2C3(C)C)cc1 (stereo unspecified)
182 to 183 °C	O=C(O)c1ccnn1-c1ccccc1
100 to 102 °C	CCc1cc(C(=O)c2ccc(OC)cc2)c(N)s1
63 to 65 °C	O=C(OCc1ccccc1)[C@@H](O)[C@H](O)C(=O)OCc1ccccc1
165 °C	Cc1ccc(-c2cccc(-c3ccc(C)cc3)n2)cc1
211 °C	O=C1C(C(O)c2ccc(O)cc2)C(C(F)(F)F)=NN1c1ccccc1 (stereo unspecified)
211 °C	Nc1c(C(=O)O)cccc1[N+](=O)[O-]
164 °C	COc1ccc(C(N)=O)cc1OC
201 to 203 °C	COc1ccc(/N=N/c2c(N)nn3c(C)cc(C)nc23)cc1
151 °C	O=C(C1=NN(c2ccccc2)C2C(=O)N(c3ccc([N+](=O)[O-])cc3)C(=O)C12)c1ccc(Br)cc1 (stereo unspecified)
146 °C	COc1cc(NS(=O)(=O)c2ccc(N)cc2)nc(C)n1
46 to 49 °C	NCc1cc(-c2ccco2)on1
153 to 154 °C	CC(C)(NO)C(=NO)c1ccccc1
55 to 60 °C	OCc1cccc(OCCN2CCOCC2)c1
190 to 192 °C	Fc1ccc(-c2cc3ccccc3[nH]2)cc1
131 °C	NC(=S)c1ccc(F)cc1F
65 to 66 °C	O=C=Nc1ccc(-n2cccc2)cc1
4.7 °C	c1ccc(N2CCCCC2)cc1
65 to 67 °C	O=Cc1ccc(Sc2ccccn2)o1
